{"source": "patent US8691945B2", "about": "“Antimicrobial peptides” (Singapore Health Services Pte Ltd., priority 2006, dated 2014)", "key": {"[1]": {"system": "E. coli, B. cereus, S. aureus and P. aeruginosa", "test": "Antimicrobial assay, statements pooled over the four pathogens", "type": "cell-based", "settings": "in comparison with hBD3", "protocol": "(§1) The bacteria assayed included Escherichia coli ATCC 25922, Staphylococcus aureus ATCC 25923, Pseudomonas aeruginosa ATCC 27853, Bacillus cereus NCTC 2599. Sterile flat-bottom, 96-well tissue culture plates (92096, TPP) was used for assay. The inner surface of microplate cover was treated with 0.05% Triton X-100 in 20% ethanol to prevent condensation of water droplets. Growth kinetics in 96-well microplates was monitored (as turbidity) with the Tecan Genios Plus microplate reader using software Magellan v5.03 and 620-nm filter. Seed culture was monitored on Pharmacia Biotech Ultrospec 2000 UV/Visible spectrophotometer using 600-nm wavelength. Antibacterial activities of the analogs and wild-type hBD3 were determined for E. coli, B. cereus, S. aureus and P. aeruginosa by measuring bacteria growth in liquid broth in the presence of the serially diluted peptides. The LD50 is the concentration of peptide at which 50% of the viable cells are killed.\nThe bacteria were grown to mid-logarithmic phase in Mueller-Hinton Broth (MHB) from overnight plate culture. […]\nLD50, LD90, LD99 and LD99.9 of wild-type hBD3 and its linear analogs were determined against two Gram-negative (E. Coli and P. aeruginosa) and two Gram-positive (B. cereus, S. aureus) (Table 3). […]"}, "[2]": {"test": "Molecular hydrophobicity by HPLC-MS retention time, full-length analogs", "type": "physicochemical", "parameters": "unit: min", "settings": "average of three tries, one value per charged fragment", "protocol": "Molecular hydrophobicity of peptides was measured by HPLC-MS at the same experimental conditions, e.g., the same peptide concentration (500 or 100 μg/ml), loading (5 μl) and flow rate of 0.2 ml/min in the same gradient 18-38% of eluant A in 32 min and relatively compared in term of retention time (Rt) of product peak.\nIn comparison with native hBD3, this series of linear analogs of hBD3 with full-length and 11 net positive charge are structurally homogenous as they are designed and synthesized only by uniform replacement of six bridging cysteine residues in hBD3 with other six residues with different hydrophobicity, e.g., A, S, C(Acm), F, Y and W. These linear analogs provide a well-defined model for testing the effect of overall hydrophobicity, second structure and linearity/or constraint imposed by three disulfide bridges on antibacterial, cytotoxicity and hemolytic activities. We have measured the relative molecular hydrophobicity by HPLC-MS in term of retention time (tR) at 500 ug/ml and 100 ug/ml (Table 2) and overall hydrophobicity were calculated based on the hydrophobicity scale of Wilmley and White and Hopp-Woods Scale, respectively. The change trend of overall hydrophobicity, which is calculated based on two different scale, generally fits well, and the HPLC result matches the calculations very well. The general order for the relative molecular hydrophobicity of peptides is as following: W6>F6>Y6>native hBD3>A6>S6>C(Acm)6. […] In the following sections, we will discuss the effect of overall hydrophobicity of peptide on biological activities."}, "[3]": {"system": "Escherichia coli ATCC 25922", "test": "Antimicrobial assay, bacteria growth in liquid broth with serially diluted peptides", "type": "cell-based", "settings": "E coli, ATCC25922; for vLD50: concentration of peptide at which 50% of the viable cells are killed", "protocol": "as §1\n(§2) The bacteria were grown to mid-logarithmic phase in Mueller-Hinton Broth (MHB) from overnight plate culture. The cell suspension was diluted to OD 0.1 (600 nm, Pharmacia Biotech Ultropec 2000 UV/Visible spectrophotometer) in mixture of 10 mM Pot Phos buffer/MHB (equal volume (PMH). This cell suspension gave a concentration of 10^7 CFU/ml. Colony count was done for confirmation. A 10-fold dilution series of this suspension ranging from 10^7 to 10^1 CFU/ml was made in PMH (in sextuplicate for Staphylococcus aureus ATCC 25923 and Bacillus cereus NCTC 2599; in quadruplicate for Escherichia coli ATCC 25922 and in triplicate for Pseudomonas aeruginosa ATCC 27853). The final volume per well was 200 ul. For negative control well, 200 ul of uninoculated PMH was added.\n(§3) LD50, LD90, LD99 and LD99.9 of wild-type hBD3 and its linear analogs were determined against two Gram-negative (E. Coli and P. aeruginosa) and two Gram-positive (B. cereus, S. aureus) (Table 3). See also FIGS. 7(A, B, C and D)."}, "[4]": {"system": "Bacillus cereus NCTC 2599", "test": "Antimicrobial assay, bacteria growth in liquid broth with serially diluted peptides", "type": "cell-based", "settings": "B cereus, NCTC2599; for vLD50: concentration of peptide at which 50% of the viable cells are killed", "protocol": "as §1, §2, §3"}, "[5]": {"system": "Staphylococcus aureus ATCC 25923", "test": "Antimicrobial assay, bacteria growth in liquid broth with serially diluted peptides", "type": "cell-based", "settings": "Staph aureus, ATCC25923; for vLD50: concentration of peptide at which 50% of the viable cells are killed", "protocol": "as §1, §2, §3"}, "[6]": {"system": "Pseudomonas aeruginosa ATCC 27853", "test": "Antimicrobial assay, bacteria growth in liquid broth with serially diluted peptides", "type": "cell-based", "settings": "P aeruginosa, ATCC27853; for vLD50: concentration of peptide at which 50% of the viable cells are killed", "protocol": "as §1, §2, §3"}, "[7]": {"test": "Molecular hydrophobicity by RP-HPLC-MS retention time, C-terminus analogs", "type": "physicochemical", "settings": "1 mg/ml; gradient 2-15.5% in 30 mins then 15.5-31% in 3 mins of eluent B (ACN)", "protocol": "The overall molecular hydrophobicity of the C-terminus hBD3 analogs were measured by RP-HPLC-MS in terms of retention time at 1 mg/ml (Table 4 and FIG. 14). RP-HPLC is an approach that is commonly employed for such comparisons of peptides or amino acid side chains among antibacterial peptides. Since the stationary phase of C18-modified silica is hydrophobic and the mobile phase (water-acetonitrile) is hydrophilic, longer retention times should be correlated with higher hydrophobicity. The measured order for the molecular hydrophobicity of the peptides is as follows: W2>F2>L2>I2>Y2>V2>C2>H2."}}, "note": "Where no end group is shown, it is not given here. The star is where a group is joined. Acm = CC(=O)NC*"}
{"substance": "GIINTLQKYYC(Acm)RVRGGRC(Acm)AVLSC(Acm)LPKEEQIGKC(Acm)STRGRKC(Acm)C(Acm)RRKK-OH [C(Acm)6, GIINTLQKYY C(Acm)6RVRGGR C(Acm)6AVLS C(Acm)6LPKEEQIGK C(Acm)6STRGRK C(Acm)6C(Acm)6RRKK]", "values": [{"measurement": "antibacterial potency in words", "setting": "[1]", "result": "relatively less potency"}, {"measurement": "Relative hydrophobicity in term of retention time (Rt) in HPLC-MS, Average", "setting": "[2]; 100 ug/ml", "result": 20.94}, {"measurement": "Relative hydrophobicity in term of retention time (Rt) in HPLC-MS, Average", "setting": "[2]; 500 ug/ml, fragment m/z 799.3", "result": 20.12}, {"measurement": "Relative hydrophobicity in term of retention time (Rt) in HPLC-MS, Average", "setting": "[2]; 500 ug/ml, fragment m/z 932.4", "result": 20.15}, {"measurement": "Relative hydrophobicity in term of retention time (Rt) in HPLC-MS, Average", "setting": "[2]; 500 ug/ml, fragment m/z 1118.8", "result": 20.11}, {"measurement": "vLD90", "setting": "[3]", "result": 23.8, "unit": "µg/mL"}, {"measurement": "vLD99", "setting": "[3]", "result": 24.9, "unit": "µg/mL"}, {"measurement": "vLD99.9", "setting": "[3]", "result": 42, "unit": "µg/mL"}, {"measurement": "vLD50", "setting": "[3]", "result": 18.7, "unit": "µg/mL"}, {"measurement": "vLD90", "setting": "[4]", "result": 28.3, "unit": "µg/mL"}, {"measurement": "vLD99", "setting": "[4]", "result": 47.8, "unit": "µg/mL"}, {"measurement": "vLD99.9", "setting": "[4]", "result": 49.8, "unit": "µg/mL"}, {"measurement": "vLD50", "setting": "[4]", "result": 19.6, "unit": "µg/mL"}, {"measurement": "vLD90", "setting": "[5]", "result": 46.8, "unit": "µg/mL"}, {"measurement": "vLD99", "setting": "[5]", "result": 91, "unit": "µg/mL"}, {"measurement": "vLD99.9", "setting": "[5]", "result": ">100", "unit": "µg/mL"}, {"measurement": "vLD50", "setting": "[5]", "result": 25, "unit": "µg/mL"}, {"measurement": "vLD90", "setting": "[6]", "result": 21.7, "unit": "µg/mL"}, {"measurement": "vLD99", "setting": "[6]", "result": 24.7, "unit": "µg/mL"}, {"measurement": "vLD99.9", "setting": "[6]", "result": 25, "unit": "µg/mL"}, {"measurement": "vLD50", "setting": "[6]", "result": 11.2, "unit": "µg/mL"}]}
{"substance": "RGRKC(Acm)C(Acm)RRKK [Peptide C2, 10-residue C-terminus fragment analog of hBD3]", "values": [{"measurement": "Overall hydrophobicity in terms of ACN % of peak", "setting": "[7]", "result": 9.67, "unit": "%"}, {"measurement": "Overall hydrophobicity in terms of Retention time (UV peak)", "setting": "[7]", "result": 17.05, "unit": "min"}]}
{"substance": "GIINTLQKYYCRVRGGRCAVLSCLPKEEQIGKCSTRGRKCCRRKK (disulfide (positions not given here); also: three disulfide bonds, pairing not given here; listed as Homo sapiens) [whbd3, wild type human β-defensin 3 with three disulfide bonds, used as control, reference compound]", "values": [{"measurement": "Relative hydrophobicity in term of retention time (Rt) in HPLC-MS, Average", "setting": "[2]; 100 ug/ml, listed as Wild-type hBD3, fragment m/z 860.2", "result": 24.28}, {"measurement": "Relative hydrophobicity in term of retention time (Rt) in HPLC-MS, Average", "setting": "[2]; 100 ug/ml, listed as Wild-type hBD3, fragment m/z 1032.2", "result": 24.29}, {"measurement": "Relative hydrophobicity in term of retention time (Rt) in HPLC-MS, Average", "setting": "[2]; 500 ug/ml, listed as Wild-type hBD3, fragment m/z 860.2", "result": 23.24}, {"measurement": "Relative hydrophobicity in term of retention time (Rt) in HPLC-MS, Average", "setting": "[2]; 500 ug/ml, listed as Wild-type hBD3, fragment m/z 1032.2", "result": 23.28}, {"measurement": "vLD90", "setting": "[3]", "result": 11.8, "unit": "µg/mL"}, {"measurement": "vLD99", "setting": "[3]", "result": 12.4, "unit": "µg/mL"}, {"measurement": "vLD99.9", "setting": "[3]", "result": 12.5, "unit": "µg/mL"}, {"measurement": "vLD50", "setting": "[3]", "result": 9.3, "unit": "µg/mL"}, {"measurement": "vLD90", "setting": "[4]", "result": 5.8, "unit": "µg/mL"}, {"measurement": "vLD99", "setting": "[4]", "result": 6.2, "unit": "µg/mL"}, {"measurement": "vLD99.9", "setting": "[4]", "result": 6.2, "unit": "µg/mL"}, {"measurement": "vLD50", "setting": "[4]", "result": 3.9, "unit": "µg/mL"}, {"measurement": "vLD90", "setting": "[5]", "result": 10.7, "unit": "µg/mL"}, {"measurement": "vLD99", "setting": "[5]", "result": 12.2, "unit": "µg/mL"}, {"measurement": "vLD99.9", "setting": "[5]", "result": 12.5, "unit": "µg/mL"}, {"measurement": "vLD50", "setting": "[5]", "result": 5.5, "unit": "µg/mL"}, {"measurement": "vLD90", "setting": "[6]", "result": 5.7, "unit": "µg/mL"}, {"measurement": "vLD99", "setting": "[6]", "result": 11.4, "unit": "µg/mL"}, {"measurement": "vLD99.9", "setting": "[6]", "result": 12.4, "unit": "µg/mL"}, {"measurement": "vLD50", "setting": "[6]", "result": 2.7, "unit": "µg/mL"}]}
{"substance": "RGRKFFRRKK (10 aa hBD3 derived peptide (C terminus), C replaced with F) [Peptide F2, 10-residue C-terminus fragment analog of hBD3]", "values": [{"measurement": "Overall hydrophobicity in terms of ACN % of peak", "setting": "[7]", "result": 14.78, "unit": "%"}, {"measurement": "Overall hydrophobicity in terms of Retention time (UV peak)", "setting": "[7]", "result": 28.41, "unit": "min"}]}
{"substance": "RGRKHHRRKK (10 aa hBD3 derived peptide (C terminus), C replaced with H) [Peptide H2, 10-residue C-terminus fragment analog of hBD3]", "values": [{"measurement": "Overall hydrophobicity in terms of ACN % of peak", "setting": "[7]", "result": 7.15, "unit": "%"}, {"measurement": "Overall hydrophobicity in terms of Retention time (UV peak)", "setting": "[7]", "result": 11.45, "unit": "min"}]}
{"substance": "RGRKIIRRKK (10 aa hBD3 derived peptide (C terminus), C replaced with I) [Peptide I2, 10-residue C-terminus fragment analog of hBD3]", "values": [{"measurement": "Overall hydrophobicity in terms of ACN % of peak", "setting": "[7]", "result": 11.96, "unit": "%"}, {"measurement": "Overall hydrophobicity in terms of Retention time (UV peak)", "setting": "[7]", "result": 22.13, "unit": "min"}]}
